The values below come from ChEMBL document CHEMBL4000206, “An efficient anticoagulant candidate: Characterization, synthesis and in vivo study of a fondaparinux analogue Rrt1.17” (Eur J Med Chem, 2017).

The source made the active and inactive calls. No cut-off for these calls is given here.

Experiment [1] addresses T1, Coagulation factor X (Homo sapiens, UniProt P00742). The experiment is described as follows: Inhibition of factor 10a (unknown origin) using S-2765 as substrate assessed as compound potency preincubated with AT-3 followed by factor 10a addition for 60 secs and subsequent addition of substrate for 60 secs measured after 4 mins.
The target of experiment [2] is T1, Coagulation factor X. Put plainly: Inhibition of factor 10a (unknown origin) using S-2765 as substrate preincubated with AT-3 followed by factor 10a addition for 60 secs and subsequent addition of substrate for 60 secs measured after 4 mins.
The subject of experiment [3] is Rattus norvegicus. Put plainly: Antithrombotic activity in Wistar rat venous thrombosis model assessed as reduction in weight of vein thrombus at 100 to 500 IU/kg, sc administered 1 hr prior to induction of thrombosis measured after 30 mins. The experiment is classed as functional, organism-based.
Experiment [4] has as its system Rattus norvegicus. Put plainly: Antithrombotic activity in Wistar rat venous thrombosis model assessed as reduction in weight of vein thrombus at 300 IU/kg, sc administered 1 hr prior to induction of thrombosis measured after 30 mins. The experiment is classed as functional, organism-based.

T1 sequence (P00742 41-179 limits assumed): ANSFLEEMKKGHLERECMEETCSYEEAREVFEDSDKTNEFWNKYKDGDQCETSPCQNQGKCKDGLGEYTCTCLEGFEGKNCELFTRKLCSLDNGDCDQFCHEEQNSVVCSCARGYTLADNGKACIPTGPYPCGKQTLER
T1 sequence (P00742 235-488 limits assumed): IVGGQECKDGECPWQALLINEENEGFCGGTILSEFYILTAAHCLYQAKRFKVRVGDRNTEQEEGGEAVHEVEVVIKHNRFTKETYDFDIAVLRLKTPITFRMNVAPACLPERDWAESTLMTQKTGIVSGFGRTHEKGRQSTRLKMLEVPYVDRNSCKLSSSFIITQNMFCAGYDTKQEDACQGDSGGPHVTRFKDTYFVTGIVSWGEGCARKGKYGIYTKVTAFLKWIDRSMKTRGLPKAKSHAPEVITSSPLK

Consider `CO[C@H]1O[C@H](COS(=O)(=O)O)[C@@H](O[C@@H]2O[C@@H](C(=O)O)[C@@H](O[C@@H]3O[C@H](COS(=O)(=O)O)[C@@H](O[C@@H]4O[C@H](C(=O)O)[C@@H](O[C@H]5O[C@H](COS(=O)(=O)O)[C@@H](O)[C@H](O)[C@H]5N)[C@H](O)[C@H]4O)[C@H](OS(=O)(=O)O)[C@H]3N)[C@H](O)[C@H]2OS(=O)(=O)O)[C@H](O)[C@H]1NS(=O)(=O)O`, for which the INH in experiment [1] turned out to be 1.32 IU/mg. The IC50 in experiment [2] was 967 nM.
With `CO[C@H]1O[C@H](COS(=O)(=O)O)[C@@H](O[C@@H]2O[C@@H](C(=O)O)[C@@H](O[C@@H]3O[C@H](COS(=O)(=O)O)[C@@H](O[C@@H]4O[C@H](C(=O)O)[C@@H](O[C@H]5O[C@H](COS(=O)(=O)O)[C@@H](O)[C@H](O)[C@H]5NS(=O)(=O)O)[C@H](O)[C@H]4O)[C@H](OS(=O)(=O)O)[C@H]3NS(=O)(=O)O)[C@H](O)[C@H]2OS(=O)(=O)O)[C@H](O)[C@H]1N(C)S(=O)(=O)O`, the result in experiment [3] was Active. For the same compound, the INH in experiment [1] stood at 1140 IU/mg. The IC50 in experiment [2] is 1.65 nM.
For the compound `CO[C@H]1O[C@H](COS(=O)(=O)O)[C@@H](O[C@@H]2O[C@@H](C(=O)O)[C@@H](O[C@@H]3O[C@H](COS(=O)(=O)O)[C@@H](O[C@@H]4O[C@H](C(=O)O)[C@@H](O[C@H]5O[C@H](COS(=O)(=O)O)[C@@H](O)[C@H](O)[C@H]5NS(=O)(=O)O)[C@H](O)[C@H]4O)[C@H](OS(=O)(=O)O)[C@H]3N)[C@H](O)[C@H]2OS(=O)(=O)O)[C@H](O)[C@H]1NS(=O)(=O)O`, the INH in experiment [1] was 2.15 IU/mg. Besides, the IC50 in experiment [2] was 494 nM.
In the same order, the values of `CC.COC1O[C@H](COS(=O)(=O)O)[C@@H](O[C@@H]2O[C@@H](C(=O)O)[C@@H](O[C@@H]3O[C@H](COS(=O)(=O)O)[C@@H](O[C@@H]4O[C@H](C(=O)O)[C@@H](O[C@H]5O[C@H](COS(=O)(=O)O)[C@@H](O)[C@H](O)[C@H]5NS(=O)(=O)O)[C@H](O)[C@H]4O)[C@H](OS(=O)(=O)O)[C@H]3NS(=O)(=O)O)[C@H](O)[C@H]2OS(=O)(=O)O)[C@H](O)[C@H]1NS(=O)(=O)O` (single isomer, unassigned) are 719 IU/mg and 3 nM.
Consider `CO[C@H]1O[C@H](COS(=O)(=O)O)[C@@H](O[C@@H]2O[C@@H](C(=O)O)[C@@H](O[C@@H]3O[C@H](COS(=O)(=O)O)[C@@H](O[C@@H]4O[C@H](C(=O)O)[C@@H](O[C@H]5O[C@H](COS(=O)(=O)O)[C@@H](O)[C@H](O)[C@H]5NC=O)[C@H](O)[C@H]4O)[C@H](OS(=O)(=O)O)[C@H]3NS(=O)(=O)O)[C@H](O)[C@H]2OS(=O)(=O)O)[C@H](O)[C@H]1NS(=O)(=O)O`, for which the INH in experiment [1] turned out to be 1260 IU/mg. In experiment [2], this compound gave an IC50 of 1.14 nM.
Take `CO[C@H]1O[C@H](COS(=O)(=O)O)[C@@H](O[C@@H]2O[C@@H](C(=O)O)[C@@H](O[C@@H]3O[C@H](COS(=O)(=O)O)[C@@H](O[C@@H]4O[C@H](C(=O)O)[C@@H](O[C@H]5O[C@H](COS(=O)(=O)O)[C@@H](O)[C@H](O)[C@H]5NS(=O)(=O)O)[C@H](O)[C@H]4O)[C@H](OS(=O)(=O)O)[C@H]3NS(=O)(=O)O)[C@H](OS(=O)(=O)O)[C@H]2OS(=O)(=O)O)[C@H](O)[C@H]1NS(=O)(=O)O`: in experiment [1], the INH turned out to be 185 IU/mg. In experiment [2], this compound showed an IC50 of 9.25 nM.
For `CO[C@H]1O[C@H](COS(=O)(=O)O)[C@@H](O[C@@H]2O[C@@H](C(=O)O)[C@@H](O[C@@H]3O[C@H](COS(=O)(=O)O)[C@@H](O[C@@H]4O[C@H](C(=O)O)[C@@H](O[C@H]5O[C@H](COS(=O)(=O)O)[C@@H](O)[C@H](O)[C@H]5NS(=O)(=O)O)[C@H](O)[C@H]4O)[C@H](OS(=O)(=O)O)[C@H]3NS(=O)(=O)O)[C@H](O)[C@H]2OS(=O)(=O)O)[C@H](O)[C@H]1NS(=O)(=O)O`, the outcome in experiment [4] was Active. Also, in experiment [1], the INH was determined as 1170 IU/mg. This compound also gave an IC50 in experiment [2] of 0.978 nM.
As for `CO[C@H]1O[C@H](COS(=O)(=O)O)[C@@H](O[C@@H]2O[C@H]3C(=O)N[C@H]4[C@H](O[C@@H]3[C@H](O)[C@H]2OS(=O)(=O)O)O[C@H](COS(=O)(=O)O)[C@@H](O[C@@H]2O[C@H](C(=O)O)[C@@H](O[C@H]3O[C@H](COS(=O)(=O)O)[C@@H](O)[C@H](O)[C@H]3NS(=O)(=O)O)[C@H](O)[C@H]2O)[C@@H]4OS(=O)(=O)O)[C@H](O)[C@H]1NS(=O)(=O)O`, the INH in experiment [1] was 83.5 IU/mg. In experiment [2], 19.9 nM corresponded to half-maximal inhibition (IC50).
Compound `CC.O=C(O)[C@H]1O[C@@H](O[C@H]2[C@H](OS(=O)(=O)O)[C@@H](NS(=O)(=O)O)[C@H](O[C@H]3[C@H](O)[C@@H](OS(=O)(=O)O)[C@H](O[C@@H]4[C@H](O)[C@@H](CO)O[C@@H]4CS(=O)(=O)O)O[C@H]3C(=O)O)O[C@@H]2COS(=O)(=O)O)[C@H](O)[C@@H](O)[C@@H]1O[C@H]1O[C@H](COS(=O)(=O)O)[C@@H](O)[C@H](O)[C@H]1NS(=O)(=O)O` showed an IC50 in experiment [2] of 20.7 nM.
